Test results reported in patent US20060211705A1, “'N-(2-chloro-6-methylphenyl)-2-[[6-[4-(2-hydroxyethyl)-1-piperazinyl]-2-methyl-4-pyrimidinyl]amino]-5-thiazolecarboxamides metabolites” (priority 2005, published 2006).

experiment: Metabolite profile of [14C] compound (I) in human hepatocyte incubations; type: in vitro ADME; conditions: (Ia) 20 μM, 3 h, 37° C., ~2 million cells/mL; relative distribution in radiochromatographic profile
Protocol: The compound of formula (I) was used as the [^14C] compound (Ia) (30.4 μCi/mg, radiochemical purity 99.2%), as the monohydrate of the free base. The C-14 label was on the carbon in the 2-position of the thiazole ring.
Freshly isolated rat hepatocyte preparations were prepared from one male Sprague-Dawley rat. Rat Hepatocytes were prepared according to a standard procedure (Seglen, PO. Preparation of isolated rat liver cells. Methods Cell Biol., 1976, 13: 29-83). Cryopreserved cynomolgus monkey hepatocytes (male, pooled, n=6) and human hepatocytes (3 individual preparation) were purchased from In Vitro Technologies (Baltimore, Md.). Microsomes from male SD Rats (pooled, n=200, 20 mg/mL) and male cynomolgus monkeys (pooled, n=8, 20 mg/mL) were obtained from Xenotech LLC, Kansas City, Kans. Human liver microsomes (male, pooled, n=38) were from BD-Gentest, Woburn, Mass.
A 6 mM stock solution of the compound of formula (Ia) (the [^14C] of the compound of formula (I) was prepared at by dissolving 3.7 mg of the compound of formula (Ia) into 1:1 acetonitrile/DMSO. The 2 mM stock solution of the compound of formula (Ia) was obtained by diluting an aliquot of the 6 mM stock solution 3-fold with acetonitrile.
Human (3 vials from 3 individuals) and monkey cryopreserved hepatocytes were thawed according to the procedure provided by In Vitro Technologies. Briefly, the caps of the cryovials were loosened to release any trapped liquid nitrogen and kept on ice for 2 min. The caps were tightened and the vials were immersed in a 37° C. water bath for 75-90 sec with gentle shaking. The thawed samples (3 cryovials/[…] for each 50 mL tube) were transferred into 25 mL pre-warmed Krebs-Henseleit buffer in a 50 mL tube and gently inverted. The suspensions were evenly divided into 2 tubes and diluted to 40 mL with pre-warmed Krebs-Henseleit buffer. The tubes were centrifuged in an Eppendorf 5810R centrifuge (Hamburg, Germany) at 200 rpm at 4° C. for 10 min. The supernatant was discarded and the pellet gently suspended in 2 mL of Krebs-Henseleit buffer. All the tubes were combined into one tube, rinsing the empty tubes with 1 mL Krebs-Henseleit buffer. The cells were counted, checked for viability and diluted accordingly with modified Krebs-Henseleit buffer to give a final concentration of 2 million viable cells/mL.
Viability of the hepatocytes was checked using a Trypan Blue exclusion assay and a hemocytometer. A mixture of 0.1 mL of the hepatocyte suspension and 0.1 mL of trypan blue solution were diluted with 0.8 mL of Krebs-Henseleit buffer. The solution was gently mixed and plated onto a Levy hemocytometer (Hausser Scientific) and the viable cells (unstained) were counted under a light microscope. The viability of the hepatocytes ranged from 77% to 90% at the beginning of the incubations.
Hepatocyte incubations were conducted at 37° C. for 3 h in a NAPCO CO2 6000 incubator (VWR Scientific Products) under a 5% CO2 atmosphere using an orbital shaker at 90 rpm. For each incubation, the final concentration of compound (Ia) was 20 μM and the hepatocyte concentrations were ˜2 million cells/mL. A control incubation, in the absence of hepatocytes, was also performed for 3 h. The incubations were stopped by adding one volume of ice-cold acetonitrile. Each 0.5 mL incubation contained 0.1 M potassium phosphate buffer (pH 7.4), 2.5 mM MgCl2, 2 mg/mL microsomal protein, and 2.0 mM NADPH. The final substrate concentration was 20 μM. The mixtures were incubated in a shaking water bath at 37° C. for 15 min. Control incubations in the absence of microsomes or NADPH were performed for each species. The reactions were stopped with the addition of 1 mL of ice-cold acetonitrile.
HPLC was performed on a Waters Alliance™ system equipped with Waters 2695 pumps and a photodiode array detector (Waters 2996). A Phenomenex Synergy Polar-RP® column (4.6×250 mm, 5 micron) was used for metabolite separation. […]

Row | Compound | % of Radioactivity in Hepatocytes, Human [%]
1 | Cc1nc(Nc2ncc(C(=O)Nc3c(C)cccc3Cl)s2)cc(N2CCNCC2)n1 [M4 (II)] | 1.0
2 | Cc1nc(Nc2ncc(C(=O)Nc3c(C)cccc3Cl)s2)cc(N2CC[N+]([O-])(CCO)CC2)n1 [M5 (III)] | 2.3

The next lines start with the values.

Row | % of Radioactivity in Hepatocytes, Human [%] | Compound
3 | 2.6 | Cc1nc(Nc2ncc(C(=O)Nc3c(C)cc(O)cc3Cl)s2)cc(N2CCN(CCO)CC2)n1 [M20 (V)]
4 | 77.7 | Cc1nc(Nc2ncc(C(=O)Nc3c(C)cccc3Cl)s2)cc(N2CCN(CCO)CC2)n1 [Parent (I), N-(2-Chloro-6-methylphenyl)-2-[[6-[4-(2-hydroxyethyl)-1-piperazinyl]-2-methyl-4-pyrimidinyl]amino]-5-thiazolecarboxamide]
5 | 2.6 | Cc1nc(Nc2ncc(C(=O)Nc3c(Cl)cccc3CO)s2)cc(N2CCN(CCO)CC2)n1 [M24 (VI), N-(2-chloro-6-(hydroxymethyl)phenyl)-2-(6-(4-(2-hydroxyethyl)piperazin-1-yl)-2-methylpyrimidin-4-ylamino)thiazole-5-carboxamide]
6 | 9.2 | Cc1nc(Nc2ncc(C(=O)Nc3c(C)cccc3Cl)s2)cc(N2CCN(CC(=O)O)CC2)n1 [M6 (IV), 2-(4-(6-(5-((2-Chloro-6-methylphenyl)carbamoyl)thiazol-2-ylamino)-2-methylpyrimidin-4-yl)piperazin-1-yl)acetic acid]
